As usually defined, the MIC is the lowest concentration found to suppress growth. For orientation: CC50 means the concentration that lowers cell viability or growth by half.

≈ marks a conversion by molar mass, not a printed value. Calls of active or inactive are those of the source. The calls are words filed in the database; no cut-off is given here. Where only a bound is given, the exact number is not on record here.

We go through one compound from ChEMBL document CHEMBL4339208, “6-Bromoindolglyoxylamido derivatives as antimicrobial agents and antibiotic enhancers” (Bioorg Med Chem, 2019).

Series [1] has as its system Erythrocyte. The experiment in a line: Hemolytic activity against human RBC incubated for 10 mins under shaking condition measured after 1 hr. Format: ADME, cell-based.
Series [2] deals with Pseudomonas aeruginosa. The experiment in a line: Potentiation of doxycycline-induced antibacterial activity against Pseudomonas aeruginosa ATCC 27853 assessed as concentration required to restore 2 ug/ml doxycycline activity measured after 18 hrs. In kind it is functional.
The subject of another series is Candida albicans. The experiment in a line: Antifungal activity against Candida albicans ATCC 90028 measured after 36 hrs. The note with it: ATCC 90028, 36 h. Format: functional.
In series [3] the test system is Pseudomonas aeruginosa. The experiment in a line: Induction of membrane depolarization in Pseudomonas aeruginosa PAO1 at 10.4 uM measured after 15 mins by DiSC3(5) dye based spectrofluorometric method. In kind it is functional, organism-based.
For series [4], the system named is Pseudomonas aeruginosa. The experiment in a line: Antibacterial activity against Pseudomonas aeruginosa ATCC 27853 measured after 18 hrs by broth dilution method. In kind it is functional. To be noted: ATCC 27853, 18 h. (In broth dilution the organism is exposed to a series of concentrations in liquid medium.)
Series [5] concerns Staphylococcus aureus. The experiment in a line: Induction of membrane depolarization in Staphylococcus aureus ATCC 25923 measured after 15 mins by DiSC3(5) dye based spectrofluorometric method. In kind it is functional, organism-based.
The test system of series [6] is Staphylococcus aureus. The experiment in a line: Antibacterial activity against Staphylococcus aureus ATCC 25923 measured after 18 hrs by broth dilution method. In kind it is functional. To be noted: ATCC 25923, 18 h.
The subject of series [7] is Staphylococcus intermedius. The experiment in a line: Antibacterial activity against Staphylococcus intermedius 1051997 measured after 18 hrs by broth dilution method. In kind it is functional. To be noted: Staphylococcus intermedius, 1051997, 18 h.
Series [8] relates to Klebsiella pneumoniae. The experiment in a line: Antibacterial activity against Klebsiella pneumoniae ATCC 700603 at 32 ug/ml measured after 18 hrs by resazurin dye based assay. In kind it is functional, organism-based. A general note: The colour change of resazurin is a common sign of viable cells or microbes.
The test system of series [9] is Pseudomonas aeruginosa. The experiment in a line: Disruption of membrane integrity in Pseudomonas aeruginosa PAO1 assessed as decrease in intracellular ATP level at 10 ug/ml by luciferin-luciferase reagent based luminescence assay relative to control. In kind it is functional. Further details: scale not given: the % may be the effect or the level left.
Series [10] concerns Klebsiella pneumoniae. The experiment in a line: Antibacterial activity against Klebsiella pneumoniae ATCC 700603 measured after 18 hrs by resazurin dye based assay. In kind it is functional. To be noted: Klebsiella pneumoniae, 700603, 18 h.
Series [11] in a line: Cytotoxicity against HEK293 cells measured after 20 hrs by resazurin dye based fluorescence assay. In kind it is cell-based, Homo sapiens. The note with it: human, HEK293 cells.
Series [12] has as its system Erythrocyte. The experiment in a line: Hemolytic activity against human RBC at 32 ug/ml incubated for 10 mins under shaking condition measured after 1 hr. In kind it is ADME, cell-based.
The test system of series [13] is Acinetobacter baumannii. The experiment in a line: Antibacterial activity against Acinetobacter baumannii ATCC 19606 measured after 18 hrs by resazurin dye based assay. To be noted: ATCC 19606 = CIP 70.34 = JCM 6841, 18 h. In kind it is functional.
Series [14] relates to Staphylococcus aureus. The experiment in a line: Disruption of membrane integrity in Staphylococcus aureus ATCC 25923 assessed as increase in extracellular ATP level by luciferin-luciferase reagent based luminescence assay. In kind it is functional, organism-based.
A further series deals with Cryptococcus neoformans. The experiment in a line: Antifungal activity against Cryptococcus neoformans ATCC 208821 measured after 36 hrs by resazurin dye based assay. In kind it is functional. To be noted: ATCC 208821, 36 h.
For series [15], the system named is Staphylococcus aureus. The experiment in a line: Induction of membrane depolarization in Staphylococcus aureus ATCC 25923 at 10.4 uM measured after 15 mins by DiSC3(5) dye based spectrofluorometric method. Format: functional, organism-based.
Another series concerns Escherichia coli. The experiment in a line: Antibacterial activity against Escherichia coli ATCC 25922 measured after 18 hrs by broth dilution method. Format: functional. The note with it: ATCC 25922, 18 h.
Series [16] concerns Pseudomonas aeruginosa. The experiment in a line: Disruption of membrane integrity in Pseudomonas aeruginosa PAO1 assessed as increase in extracellular ATP level by luciferin-luciferase reagent based luminescence assay. Format: functional, organism-based.
Series [17] concerns Acinetobacter baumannii. The experiment in a line: Antibacterial activity against Acinetobacter baumannii ATCC 19606 at 32 ug/ml measured after 18 hrs by resazurin dye based assay. Format: functional, organism-based. The note with it: ATCC 19606 = CIP 70.34 = JCM 6841.

In the case of `O=C(NCCCNCCCCNCCCNC(=O)C(=O)c1c[nH]c2cc(Br)ccc12)C(=O)c1c[nH]c2cc(Br)ccc12`, the HC10 with Erythrocyte [1] is > 34 µM. The Activity was 6.25 µM in the series on Pseudomonas aeruginosa [2]; “Dose-dependent effect” with Staphylococcus aureus [5]; 10% with Pseudomonas aeruginosa [9]; “Non-Toxic” in the series with Erythrocyte [12]; “Dose-dependent effect” with Staphylococcus aureus [14]; “Dose-dependent effect” with Pseudomonas aeruginosa [16]. In addition, the MIC was 17.2 µM (≈ 12.1 µg/mL) in the series on Candida albicans; 100 µM (≈ 70.2 µg/mL) against Pseudomonas aeruginosa [4]; 6.25 µM (≈ 4.39 µg/mL) against Staphylococcus aureus [6]; 3.12 µM (≈ 2.2 µg/mL) in series [7]; > 34 µM against Klebsiella pneumoniae [10]; > 34 µM in the series with Acinetobacter baumannii [13]. The MIC in the series with Cryptococcus neoformans was found to be 1.1 µM (≈ 0.773 µg/mL); against Escherichia coli, 100 µM (≈ 70.2 µg/mL). Also, the outcome with Pseudomonas aeruginosa [3] and with Staphylococcus aureus [15] was Active. The outcome in the series with Klebsiella pneumoniae [8] and with Acinetobacter baumannii [17] was inactive. The same compound registered a CC50 at 20 h in [11] of 5.06 µM.
